# Experiments:
# [1] = system: S. aureus N315 (methicillin-resistant, MRSA); experiment: MIC testing (broth microdilution, EUCAST); format: cell-based; settings: Staphylococcus aureus, MRSA
# Procedure: (§1) Minimal inhibitory concentration (MIC) of the compounds in the present invention was determined using broth microdilution performed according to EUCAST guidelines (ISO20776-1:2019). S. aureus ATCC29213 and E. faecalis ATCC29212 served as quality control strains.
# [2] = system: S. epidermidis DSM-28765; experiment: MIC testing (broth microdilution, EUCAST); format: cell-based; settings: Staphylococcus epidermidis, DSM28765, S. epidermidis DSM-28765; read-out: MIC S. epiderm.
# Procedure: as §1
# [3] = system: P. falciparum; experiment: P. falciparum infection models, per oral; format: in vivo; settings: 50 mg/kg per oral
# From the text: (§2) In addition, standard in vitro ADME parameters cannot be uniquely determined since chlorotonil A concentrations in these assays were always below the limit of detection. […] Both compounds (chlorotonil A and B1-Epo2) could be administered at low doses intravenously, however, only when dissolved in a vehicle which is not suitable for further development as part of preclinic studies as it contained high amounts of organic solvents (10 vol. % ethanol, 5 vol. % DMSO).
# [4] = system: zebrafish larvae; experiment: Toxicity in zebrafish larvae (MTC / IC50); format: in vivo
# Procedure: For toxicity screening, zebrafish larvae were exposed three days post fertilization and monitored for 48 h until five days post fertilization. All malformations and pathophysiological phenotypes were noted and used to determine the inhibitory concentration (IC50) of the respective derivative against zebrafish larvae. The selectivity index (SI) was then calculated using the IC50 and the MIC of either S. aureus or P. falciparum 3D7.
# [5] = system: chloroquine-resistant laboratory strains of Plasmodium falciparum; settings: cited from earlier work
# [6] = system: chloroquine-sensitive laboratory strains of Plasmodium falciparum; settings: cited from earlier work
# [7] = Aqueous solubility; format: physicochemical
# Procedure: (§3) Complementing the toxicity profiling, ADME properties of the lead dehalogenil were determined. This had not been possible for the first generation frontrunner ChB1-Epo2 or the natural product ChA because of their poor limit of detection. […] Across species (mouse, rat, human), metabolic stability is high while plasma stability is moderate. Besides, no hemolysis and no inhibition of the metabolically important enzyme CYP3A4 was observed by both dehalogenil and ChA. Plasma protein binding (PPB) is >99.4% in all species.
# [8] = Hemolysis; format: cell-based
# Procedure: as §3
# [9] = system: parasitemia; settings: mice, 4 day suppression test, 36-110 mg/kg oral, pilot experiments; cited from earlier work
# [10] = system: clinical isolates from Gabon; settings: read-out: median IC50; cited from earlier work
# [11] = system: mature gametocytes (stages IV and V); experiment: Activity against mature gametocytes (stage IV-V), bioluminescence assay; format: cell-based, P. falciparum; settings: Plasmodium falciparum
# Procedure: Activity against gametocytes was determined using an in vitro bioluminescence assay as described previously (doi.org/10.1371/journal.pone.0035019).
# [12] = system: CYP3A4; experiment: Inhibition of CYP3A4; format: in vitro ADME
# Procedure: as §3
# [13] = system: Plasmodium falciparum; settings: cited from earlier work
# [14] = Toxicity in mouse models after multiple PO dosing; format: in vivo; settings: multiple PO dosing at 100 mg/kg
# From the text: as §2
# [15] = system: mature gametocytes (stages IV and V); settings: stage IV-V gametocytes; cited from earlier work
# [16] = system: drug-sensitive P. falciparum 3D7; experiment: Drug sensitivity assay, asexual stages (HRP2 ELISA, 72 h); format: cell-based; settings: Plasmodium falciparum, mean ± SD, read-out: chloroquine IC50
# Procedure: (§4) Drug sensitivity assays of asexual plasmodium stages were carried out as described before (doi: 10.1128/AAC.49.8.3575-3577.2005). Briefly, the drugs were distributed in a 3-fold serial dilution in 96-well plates. Synchronized ring-stage parasites were diluted to a parasitemia of 0.05% with O Rh+ erythrocytes incomplete culture medium and seeded at a hematocrit of 1.5% in a total volume of 225 μL per well. Thereafter, the plates were incubated at 5% CO2, 5% O2, at 37° C. for 72 h, then they were frozen and thawed three times. The growth inhibition of P. falciparum was measured through an enzyme-linked immunosorbent assay (ELISA) for histidine-rich protein 2 (HRP2) using a microplate reader.
# [17] = system: chloroquine-resistant P. falciparum; experiment: as above; format: cell-based; settings: Plasmodium falciparum; chloroquine-resistant P. falciparum Dd2; mean ± SD
# Procedure: as §4
Structure (SMILES),MIC [1] [µg/mL],MIC [2] [µg/mL],efficacy in P. falciparum infection model (cure) [3],toxicity effects in zebrafish larvae models ([4]; comparative studies),"IC50 in zebrafish larvae ([4]; exposed 3 days post fertilization, monitored 48 h) [µM]",IC50 [5] [nM],IC50 [6] [nM],water solubility [7],hemolysis [8],reduced parasitemia [9] [%],IC50 [10] [nM],IC50 [11] [nM],inhibition of CYP3A4 [12],development of resistant parasites in vitro by drug pressure [13],toxicity in mouse models [14],gametocytocidal activity compared with other tested compounds [15],IC50 [16] [nM],IC50 [17] [nM]
"CC1=C[C@@H](C)[C@H]2[C@@H]3C(=O)C(Cl)(Cl)C(=O)[C@H](C)C(=O)O[C@@H](C)/C=C/C=C\[C@@H](C)[C@@H]3C=C[C@@H]2C1 [ChA, reference compound]",0.05,0.05,full cure,"cardiotoxic, hepatotoxic and developmental toxicity effects",1.09,18,9,poor water solubility,no hemolysis,> 90,15.2,9.5 ± 3,no inhibition,not possible to develop resistant parasites in vitro,"general adverse effects, and cardio- and hepatotoxicity","superior activity to all other tested compounds in this assay, besides epoxomicin",–,–
CCN(CC)CCCC(C)Nc1ccnc2cc(Cl)ccc12 (stereo not drawn) [Chloroquine],–,–,–,–,–,–,–,–,–,–,–,–,–,–,–,–,7.4,226 ± 76

# From patent US20260335277A1, “CHLOROTONIL DERIVATIVES” (priority 2023, published 2026)
